In ChEMBL document CHEMBL5113438, “Discovery of highly potent and selective CRBN-recruiting EGFRL858R/T790M degraders in vivo” (Eur J Med Chem, 2022):

Columns and labels:
[1] = biological target: von Hippel-Lindau disease tumor suppressor/Epidermal growth factor receptor (Homo sapiens, UniProt P00533+P40337, L858R/T790M); assay: Protac activity at VHL/EGFR L858R/T790M mutant in human NCI-H1975 cells assessed as induction of degradation of EGFR incubated for 24 hrs in presence of afatinib by immunoblot analysis; assay type: cell-based
von Hippel-Lindau disease tumor suppressor/Epidermal growth factor receptor, sequence (P00533 25-1210 T790M/L858R limits assumed, stated change not applied): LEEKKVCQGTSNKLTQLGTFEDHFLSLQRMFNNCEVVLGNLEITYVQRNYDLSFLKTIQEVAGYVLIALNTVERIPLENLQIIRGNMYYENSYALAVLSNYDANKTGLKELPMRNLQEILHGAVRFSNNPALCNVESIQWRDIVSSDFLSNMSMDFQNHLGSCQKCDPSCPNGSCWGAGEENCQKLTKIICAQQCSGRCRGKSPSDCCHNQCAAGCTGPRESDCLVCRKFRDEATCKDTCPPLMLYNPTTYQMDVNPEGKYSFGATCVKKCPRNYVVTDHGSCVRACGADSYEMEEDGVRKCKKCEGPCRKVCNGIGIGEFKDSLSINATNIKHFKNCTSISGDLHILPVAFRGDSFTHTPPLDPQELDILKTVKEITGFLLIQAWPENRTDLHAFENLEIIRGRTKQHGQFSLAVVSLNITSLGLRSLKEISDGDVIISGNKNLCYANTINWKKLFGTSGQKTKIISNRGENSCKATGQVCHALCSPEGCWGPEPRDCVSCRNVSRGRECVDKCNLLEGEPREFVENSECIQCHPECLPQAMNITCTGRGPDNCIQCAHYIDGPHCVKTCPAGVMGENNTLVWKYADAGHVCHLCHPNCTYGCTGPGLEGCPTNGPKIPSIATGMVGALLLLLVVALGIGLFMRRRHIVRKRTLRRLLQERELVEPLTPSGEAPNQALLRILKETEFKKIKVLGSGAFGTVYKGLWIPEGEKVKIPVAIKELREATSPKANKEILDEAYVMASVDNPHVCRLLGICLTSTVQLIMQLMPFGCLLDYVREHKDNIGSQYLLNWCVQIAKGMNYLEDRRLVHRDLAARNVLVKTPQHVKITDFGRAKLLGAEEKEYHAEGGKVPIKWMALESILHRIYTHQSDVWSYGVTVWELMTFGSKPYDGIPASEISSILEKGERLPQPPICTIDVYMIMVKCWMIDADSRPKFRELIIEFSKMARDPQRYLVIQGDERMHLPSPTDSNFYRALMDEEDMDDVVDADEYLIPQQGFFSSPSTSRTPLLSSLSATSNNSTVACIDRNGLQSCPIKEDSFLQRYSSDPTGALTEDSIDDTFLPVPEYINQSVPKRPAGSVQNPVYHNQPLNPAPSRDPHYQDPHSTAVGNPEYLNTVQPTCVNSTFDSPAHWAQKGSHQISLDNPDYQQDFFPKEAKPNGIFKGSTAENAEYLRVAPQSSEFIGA
von Hippel-Lindau disease tumor suppressor/Epidermal growth factor receptor, sequence (P40337 whole entry, stated change not applied): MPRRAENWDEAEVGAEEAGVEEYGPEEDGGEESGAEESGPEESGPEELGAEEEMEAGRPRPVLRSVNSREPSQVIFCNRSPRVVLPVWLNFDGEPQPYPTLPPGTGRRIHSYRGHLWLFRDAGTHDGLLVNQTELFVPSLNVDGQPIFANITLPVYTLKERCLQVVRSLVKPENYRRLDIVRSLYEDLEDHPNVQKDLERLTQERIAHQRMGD

[2] = Selectivity ratio IC50 for human NCI-H1299 cells expressing wild type EGFR to human NCI-H1975 cells expressing EGFR L858R/T790M; assay type: functional
NCI-H1975 [3] = assay: Antiproliferative activity against human NCI-H1975 cells expressing EGFR L858R/T790M incubated for 72 hrs by CCK-8 assay; assay type: functional, cell-based; conditions: NCI-H1975, 72 h
HCC827 = assay: Antiproliferative activity against human NCI-HCC827 cells expressing EGFR del19 incubated for 72 hrs by CCK-8 assay; assay type: functional, cell-based; conditions: HCC827, 72 h
A549 = assay: Antiproliferative activity against human A549 cells expressing wild type EGFR incubated for 72 hrs by CCK-8 assay; assay type: functional, cell-based; conditions: A549, 72 h
NCI-H1299 [4] = assay: Antiproliferative activity against human NCI-H1299 cells expressing wild type EGFR incubated for 72 hrs by CCK-8 assay; assay type: functional, cell-based; conditions: NCI-H1299, 72 h
BaF3 [5] = assay: Antiproliferative activity against mouse BaF3 harbouring EGFR L858R/T790M mutant assessed as inhibition of cell growth incubated for 72 hrs by MTS assay; assay type: functional, cell-based; conditions: BaF3, 72 h
BaF3 [6] = assay: Antiproliferative activity against mouse BaF3 harbouring EGFR L858R/T790M/L718Q mutant assessed as inhibition of cell growth incubated for 72 hrs by MTS assay; assay type: functional, cell-based; conditions: BaF3, 72 h
BaF3 [7] = assay: Antiproliferative activity against mouse BaF3 harbouring EGFR L858R/T790M/C797S mutant assessed as inhibition of cell growth incubated for 72 hrs by MTS assay; assay type: functional, cell-based; conditions: BaF3, 72 h
NCI-H1299 [8] = assay: Induction of apoptosis in human NCI-H1299 cells assessed as viable cells at 0.1 uM incubated for 48 hrs by AnnexinV-FITC/propidium iodide staining based flow cytometry analysis (reference value: 98.05 % ); assay type: functional; conditions: read-out: Activity
NCI-H1299 [9] = assay: Induction of apoptosis in human NCI-H1299 cells assessed as early apoptotic cells at 1.0 uM incubated for 48 hrs by AnnexinV-FITC/propidium iodide staining based flow cytometry analysis (reference value: 0.11 % ); assay type: functional
NCI-H1975 [10] = assay: Induction of apoptosis in human NCI-H1975 cells assessed as viable cells at 1.0 uM incubated for 48 hrs by AnnexinV-FITC/propidium iodide staining based flow cytometry analysis (reference value: 96.2 % ); assay type: functional; conditions: read-out: Activity
NCI-H1975 [11] = assay: Induction of apoptosis in human NCI-H1975 cells assessed as viable cells at 0.1 uM incubated for 48 hrs by AnnexinV-FITC/propidium iodide staining based flow cytometry analysis (reference value: 96.2 % ); assay type: functional; conditions: read-out: Activity
NCI-H1975 [12] = assay: Induction of apoptosis in human NCI-H1975 cells assessed as necrotic cells at 0.1 uM incubated for 48 hrs by AnnexinV-FITC/propidium iodide staining based flow cytometry analysis (reference value: 3.28 % ); assay type: functional
NCI-H1299 [13] = assay: Induction of apoptosis in human NCI-H1299 cells assessed as late apoptotic cells at 1.0 uM incubated for 48 hrs by AnnexinV-FITC/propidium iodide staining based flow cytometry analysis (reference value: 1.53 % ); assay type: functional
NCI-H1975 [14] = assay: Induction of apoptosis in human NCI-H1975 cells assessed as necrotic cells at 1.0 uM incubated for 48 hrs by AnnexinV-FITC/propidium iodide staining based flow cytometry analysis (reference value: 3.28 % ); assay type: functional
NCI-H1975 [15] = assay: Induction of apoptosis in human NCI-H1975 cells assessed as early apoptotic cells at 1.0 uM incubated for 48 hrs by AnnexinV-FITC/propidium iodide staining based flow cytometry analysis (reference value: 0.11 % ); assay type: functional
[16] = Plasma protein binding in rat assessed as unbound fraction at 1 uM incubated for 4 hrs by rapid equilibrium dialysis method; assay type: ADME, cell-free; conditions: read-out: PPB (converted)
NCI-H1975 [17] = assay: Induction of apoptosis in human NCI-H1975 cells assessed as late apoptotic cells at 0.1 uM incubated for 48 hrs by AnnexinV-FITC/propidium iodide staining based flow cytometry analysis (reference value: 1.35 % ); assay type: functional
NCI-H1299 [18] = assay: Induction of apoptosis in human NCI-H1299 cells assessed as viable cells at 1.0 uM incubated for 48 hrs by AnnexinV-FITC/propidium iodide staining based flow cytometry analysis (reference value: 98.05 % ); assay type: functional; conditions: read-out: Activity
NCI-H1299 [19] = assay: Induction of apoptosis in human NCI-H1299 cells assessed as late apoptotic cells at 0.1 uM incubated for 48 hrs by AnnexinV-FITC/propidium iodide staining based flow cytometry analysis (reference value: 1.53 % ); assay type: functional
NCI-H1975 [20] = assay: Induction of apoptosis in human NCI-H1975 cells assessed as early apoptotic cells at 0.1 uM incubated for 48 hrs by AnnexinV-FITC/propidium iodide staining based flow cytometry analysis (reference value: 0.11 % ); assay type: functional
NCI-H1299 [21] = assay: Induction of apoptosis in human NCI-H1299 cells assessed as necrotic cells at 0.1 uM incubated for 48 hrs by AnnexinV-FITC/propidium iodide staining based flow cytometry analysis (reference value: 0.24 % ); assay type: functional
NCI-H1299 [22] = assay: Induction of apoptosis in human NCI-H1299 cells assessed as early apoptotic cells at 0.1 uM incubated for 48 hrs by AnnexinV-FITC/propidium iodide staining based flow cytometry analysis (reference value: 0.11 % ); assay type: functional
NCI-H1299 [23] = assay: Induction of apoptosis in human NCI-H1299 cells assessed as necrotic cells at 1.0 uM incubated for 48 hrs by AnnexinV-FITC/propidium iodide staining based flow cytometry analysis (reference value: 0.24 % ); assay type: functional
NCI-H1975 [24] = assay: Induction of apoptosis in human NCI-H1975 cells assessed as late apoptotic cells at 1.0 uM incubated for 48 hrs by AnnexinV-FITC/propidium iodide staining based flow cytometry analysis (reference value: 1.35 % ); assay type: functional

Row | SMILES | IC50 (NCI-H1975 [3]) [µM] | IC50 (HCC827) [µM] | IC50 (A549) [µM] | IC50 (NCI-H1299 [4]) [µM] | Ratio IC50 [2] | further results
1 | Cc1ccsc1-c1ccc(CNC(=O)[C@@H]2C[C@@H](O)CN2C(=O)[C@@H](NC(=O)CCCCCOCCCCOCCCCOc2cc3ncnc(Nc4ccc(F)c(Cl)c4)c3cc2NC(=O)/C=C/CN(C)C)C(C)(C)C)cc1 |  |  |  |  |  | EC50 [1]: 0.216 µM
2 | O=C1CCC(N2C(=O)c3cccc(NCCOCCOCCOCCN4CCN(c5ccc(-c6ccc7c(c6)C(=O)N(C(C(=O)Nc6nccs6)c6ccccc6)C7)cn5)CC4)c3C2=O)C(=O)N1 (stereo unspecified) |  |  |  |  |  | IC50 (BaF3 [5]): 0.05 µM; IC50 (BaF3 [6]): 0.028 µM; IC50 (BaF3 [7]): 0.041 µM
3 | C#CCN(CCCCCCCCCC(=O)Nc1cccc2c1CN(C1CCC(=O)NC1=O)C2=O)CCN(C)c1cc(OC)c(Nc2nccc(-c3cn(C)c4ccccc34)n2)cc1NC(=O)C=C (stereo unspecified) | 6.8 | 2.65 | > 100 | > 100 | 14 | 
4 | C=CC(=O)Nc1cc(Nc2nccc(-c3cn(C)c4ccccc34)n2)c(OC)cc1N(C)CCN(C)C [OSIMERTINIB] | […] | 0.00248 | 0.445 | 3.24 | […] | viability at 0.1 µM (NCI-H1299 [8]): 98.2%; Activity (NCI-H1299 [9]): 0.075%; viability at 1 µM (NCI-H1975 [10]): 56.4%; viability at 0.1 µM (NCI-H1975 [11]): 90.1%; Activity (NCI-H1975 [12]): 6.89%; Activity (NCI-H1299 [13]): 2.14%; Activity (NCI-H1975 [14]): 7.27%; Activity (NCI-H1975 [15]): 1.7%; fraction unbound at 4 h, 1 µM [16]: 0.0133; Activity (NCI-H1975 [17]): 3.83%; viability at 1 µM (NCI-H1299 [18]): 97.3%; Activity (NCI-H1299 [19]): […]; Activity (NCI-H1975 [20]): […]; Activity (NCI-H1299 [21]): 0.34%; Activity (NCI-H1299 [22]): 0.08%; Activity (NCI-H1299 [23]): 0.5%; Activity (NCI-H1975 [24]): 34.7%

Further lines, with some results ahead:

Row | IC50 (NCI-H1975 [3]) [µM] | IC50 (HCC827) [µM] | IC50 (A549) [µM] | IC50 (NCI-H1299 [4]) [µM] | SMILES | Ratio IC50 [2] | further results
5 | 3.23 | 1.16 | > 100 | > 100 | C#CCN(CCCCCCCCC(=O)Nc1cccc2c1CN(C1CCC(=O)NC1=O)C2=O)CCN(C)c1cc(OC)c(Nc2nccc(-c3cn(C)c4ccccc34)n2)cc1NC(=O)C=C (stereo unspecified) | 31 | 
6 | 1.36 | 0.457 | > 100 | > 100 | C#CCN(CCCCCCCC(=O)Nc1cccc2c1CN(C1CCC(=O)NC1=O)C2=O)CCN(C)c1cc(OC)c(Nc2nccc(-c3cn(C)c4ccccc34)n2)cc1NC(=O)C=C (stereo unspecified) | 74 | 
7 | 1.02 | 0.309 | > 100 | > 100 | C#CCN(CCCCC(=O)Nc1cccc2c1CN(C1CCC(=O)NC1=O)C2=O)CCN(C)c1cc(OC)c(Nc2nccc(-c3cn(C)c4ccccc34)n2)cc1NC(=O)C=C (stereo unspecified) | 98 | 
8 | 3.56 | 0.649 | > 100 | > 100 | C#CCN(CCCCCC(=O)Nc1cccc2c1CN(C1CCC(=O)NC1=O)C2=O)CCN(C)c1cc(OC)c(Nc2nccc(-c3cn(C)c4ccccc34)n2)cc1NC(=O)C=C (stereo unspecified) | 28 | 
9 | 1.11 | 0.358 | > 100 | > 100 | C#CCN(CCCCCCC(=O)Nc1cccc2c1CN(C1CCC(=O)NC1=O)C2=O)CCN(C)c1cc(OC)c(Nc2nccc(-c3cn(C)c4ccccc34)n2)cc1NC(=O)C=C (stereo unspecified) | 90 | 
